Measurements reported in the supplement of paper PMC11208160.

Assay: recombinant UMI read abundance after kanamycin selection (control-corrected) (log10(CPM+1)); higher = more efficient recombination; extreme values may be limits of the assay; sequences stand for … in AGTGCAGAGAAAATCGGCCAGTTTTCTCTGCCTGCAGTCCGCATGCCGTGGGACCCCTTGGGTTCTAACCTGTTGCCTAGATTTATGCAGCGGACTGCCTTTCTCCCAAAGTGATAAACCGG…AGGTTGGTTTCACT; site = the 11-nt donor
Summary of the method: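 Counts of recombinant UMIs were reported as log10(CPM+1). Before that, they were converted to CPM, averaged over replicates and scaled using control-derived factors. They came from PCR across the donor–target junction after Escherichia coli carrying the pair library and target plasmid was plated on IPTG (0.07 mM) plus kanamycin, or unselected, in two replicates each.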
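Also: IS621 bridge recombinase in Escherichia coli cells against a fixed T5 target plasmid.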

Sequence	recombinant UMI read abundance (log10)
TACTTGGCATGGACCGGTTTTCCCGGTAATCCGTATTTGCT (site TACTTGGCTAG)	0.00377
TACTTGGCATGGACCGGTTTTCCCGGTAATCCGTATTTGCT (site TACTTGTCTAG)	0
TACTTGGCATGGACCGGTTTTCCCGGTAATCCGTATTTGGA (site AACTTGGCTTC)	0.0162
TACTTGGCATGGACCGGTTTTCCCGGTAATCCGTATTTGGA (site CACTTGGCTTC)	0.00371
TACTTGGCATGGACCGGTTTTCCCGGTAATCCGTATTTGGA (site GACTTGGCTTC)	0.00882
TACTTGGCATGGACCGGTTTTCCCGGTAATCCGTATTTGGA (site TACTTGGCTTC)	0.216
TACTTGTCATGGACCGGTTTTCCCGGTAATCCGTATTTGGG (site TACTTGTCTCC)	0.17
TACTTTACATGGACCGGTTTTCCCGGTAATCCGTATTTGCT (site TACTTAACTAG)	0
TACTTTACATGGACCGGTTTTCCCGGTAATCCGTATTTGCT (site TACTTCACTAG)	1.36
TACTTTACATGGACCGGTTTTCCCGGTAATCCGTATTTGCT (site TACTTGACTAG)	0.00292
TACTTTACATGGACCGGTTTTCCCGGTAATCCGTATTTGCT (site TACTTTACTAG)	1.01
TAGAATACATGGACCGGTTTTCCCGGTAATCCGTATTTGGA (site TAGAATACTTA)	0.00272
TAGAATACATGGACCGGTTTTCCCGGTAATCCGTATTTGGA (site TAGAATACTTC)	1.99
TAGAATACATGGACCGGTTTTCCCGGTAATCCGTATTTGGA (site TAGAATACTTG)	0
TAGAATACATGGACCGGTTTTCCCGGTAATCCGTATTTGGA (site TAGAATACTTT)	0.731
TAGACAACATGGACCGGTTTTCCCGGTAATCCGTATTTGAG (site TAGACAACTCT)	0.821

Sequence	recombinant UMI read abundance (log10)
TAGAGCGCATGGACCGGTTTTCCCGGTAATCCGTATTTGTG (site TAGAGCGCTCA)	1.05
TAGAGTACATGGACCGGTTTTCCCGGTAATCCGTATTTGCA (site TAGAATACTTG)	1.37
TAGAGTACATGGACCGGTTTTCCCGGTAATCCGTATTTGCA (site TAGACTACTTG)	0.88
TAGAGTACATGGACCGGTTTTCCCGGTAATCCGTATTTGCA (site TAGAGTACTTG)	2.08
TAGAGTACATGGACCGGTTTTCCCGGTAATCCGTATTTGCA (site TAGATTACTTG)	0
TAGATAACATGGACCGGTTTTCCCGGTAATCCGTATTTGTG (site TAGATAACTCA)	1.2
TAGATAGCATGGACCGGTTTTCCCGGTAATCCGTATTTGAA (site TAGATAGCTTT)	2.07
TAGATAGCATGGACCGGTTTTCCCGGTAATCCGTATTTGAA (site TAGCTAGCTTT)	0.0111
TAGATAGCATGGACCGGTTTTCCCGGTAATCCGTATTTGAA (site TAGGTAGCTTT)	0.0819
TAGATAGCATGGACCGGTTTTCCCGGTAATCCGTATTTGAA (site TAGTTAGCTTT)	0.173
TAGCACGCATGGACCGGTTTTCCCGGTAATCCGTATTTGGG (site AAGCACGCTCC)	0.0104
TAGCACGCATGGACCGGTTTTCCCGGTAATCCGTATTTGGG (site CAGCACGCTCC)	0.00759
TAGCACGCATGGACCGGTTTTCCCGGTAATCCGTATTTGGG (site GAGCACGCTCC)	0.0209
TAGCACGCATGGACCGGTTTTCCCGGTAATCCGTATTTGGG (site TAGCACGCTCC)	0.0358
TAGCCGTCATGGACCGGTTTTCCCGGTAATCCGTATTTGGT (site TAGCCATCTAC)	0.764
TAGCCGTCATGGACCGGTTTTCCCGGTAATCCGTATTTGGT (site TAGCCCTCTAC)	0
